Measured values as given in ChEMBL document CHEMBL5149974, “Antimicrobial drugs bearing guanidine moieties: A review” (Eur J Med Chem, 2021).
Converted amounts (≈) assume the structure as drawn.

Columns and labels:
Assay type in all cases: functional
[1] = system: Mycobacterium tuberculosis; assay: Potentiation of isoniazid-induced antimycobacterial activity against Mycobacterium tuberculosis H37Rv assessed as reduction in isoniazid MIC at 125 uM incubated for 48 hrs by alamar blue staining based analysis
[2] = system: Mycobacterium tuberculosis; assay: Potentiation of isoniazid-induced antimycobacterial activity against Mycobacterium tuberculosis H37Rv assessed as reduction in isoniazid MIC at 250 uM incubated for 48 hrs by alamar blue staining based analysis
Staphylococcus aureus [3] = assay: Potentiation of ethidium bromide-induced antibacterial activity against Staphylococcus aureus 1199B overexpressing NorA efflux pump assessed as fold reduction in ethidium bromide MIC by microdilution method
Staphylococcus aureus [4] = assay: Potentiation of Norfloxacin-induced antibacterial activity against Staphylococcus aureus 1199B overexpressing NorA efflux pump assessed as fold reduction in norfloxacin MIC by microdilution method
Staphylococcus aureus [5] = assay: Potentiation of ethidium bromide-induced antibacterial activity against Staphylococcus aureus 1199B overexpressing NorA efflux pump assessed as ethidium bromide MIC by microdilution method
Staphylococcus aureus [6] = assay: Potentiation of Norfloxacin-induced antibacterial activity against Staphylococcus aureus 1199B overexpressing NorA efflux pump assessed as norfloxacin MIC by microdilution method
[7] = system: Mycolicibacterium smegmatis; assay: Potentiation of cefotaxime-induced antimycobacterial activity against Mycobacterium smegmatis assessed as cefotaxime MIC at 9 ug/ml (reference value: 128 ug/ml); conditions: dose 9 µg/ml
Staphylococcus aureus [8] = assay: Antibacterial activity against Staphylococcus aureus ATCC 25923 assessed as growth inhibition incubated for 18 hrs by broth microdilution method
Enterococcus faecalis [9] = assay: Antibacterial activity against Enterococcus faecalis ATCC 29212 assessed as growth inhibition incubated for 18 hrs by broth microdilution method
Acinetobacter baumannii = assay: Antibacterial activity against Acinetobacter baumannii ATCC 17978 assessed as growth inhibition incubated for 18 hrs by broth microdilution method
[10] = system: Staphylococcus epidermidis; assay: Antibacterial activity against Staphylococcus epidermidis ATCC 14990 assessed as growth inhibition incubated for 18 hrs by broth microdilution method
Escherichia coli [11] = assay: Antibacterial activity against Escherichia coli CCUG assessed as growth inhibition incubated for 18 hrs by broth microdilution method
Bacillus subtilis [12] = assay: Antibacterial activity against Bacillus subtilis ATCC 6633 assessed as growth inhibition incubated for 18 hrs by broth microdilution method
Klebsiella pneumoniae = assay: Antibacterial activity against Klebsiella pneumoniae ATCC 13833 assessed as growth inhibition incubated for 18 hrs by broth microdilution method
Pseudomonas aeruginosa [13] = assay: Antibacterial activity against Pseudomonas aeruginosa ATCC 27853 assessed as growth inhibition incubated for 18 hrs by broth microdilution method
Bacillus subtilis [14] = assay: Antibacterial activity against Bacillus subtilis assessed as inhibition of bacterial growth measured after 24 hrs
Enterococcus faecalis [15] = assay: Antibacterial activity against Enterococcus faecalis CMCC 29212 assessed as inhibition of bacterial growth incubated for 24 hrs by microplate reader analysis
Staphylococcus aureus [16] = assay: Antibacterial activity against Staphylococcus aureus CMCC (B) 26003 assessed as inhibition of bacterial growth incubated for 24 hrs by microplate reader analysis
Pseudomonas aeruginosa [17] = assay: Antibacterial activity against Pseudomonas aeruginosa CMCC 10104 assessed as inhibition of bacterial growth incubated for 24 hrs by microplate reader analysis
Staphylococcus aureus [18] = assay: Antibacterial activity against Staphylococcus aureus assessed as inhibition of bacterial growth measured after 24 hrs
Staphylococcus aureus [19] = assay: Antibacterial activity against multidrug-resistant Staphylococcus aureus ATCC 43300 assessed as inhibition of bacterial growth incubated for 24 hrs by microplate reader analysis
Streptococcus mutans = assay: Antibacterial activity against Streptococcus mutans BNCC 336931 assessed as inhibition of bacterial growth incubated for 24 hrs by microplate reader analysis
Staphylococcus aureus [20] = assay: Antibacterial activity against multidrug-resistant Staphylococcus aureus ATCC 33591 assessed as inhibition of bacterial growth incubated for 24 hrs by microplate reader analysis
Bacillus subtilis [21] = assay: Antibacterial activity against Bacillus subtilis CMCC 63501 assessed as inhibition of bacterial growth incubated for 24 hrs by microplate reader analysis
Escherichia coli [22] = assay: Antibacterial activity against Escherichia coli CMCC 25922 assessed as inhibition of bacterial growth incubated for 24 hrs by microplate reader analysis
Pseudomonas aeruginosa [23] = assay: Antibacterial activity against multidrug-resistant Pseudomonas aeruginosa ATCC BAA-2111 assessed as inhibition of bacterial growth incubated for 24 hrs by microplate reader analysis
Escherichia coli [24] = assay: Antibacterial activity against Escherichia coli CMCC 44568 assessed as inhibition of bacterial growth incubated for 24 hrs by microplate reader analysis
Staphylococcus aureus [25] = assay: Antibacterial activity against Staphylococcus aureus CMCC 25923 assessed as inhibition of bacterial growth incubated for 24 hrs by microplate reader analysis
Pseudomonas aeruginosa [26] = assay: Antibacterial activity against Pseudomonas aeruginosa CMCC 27853 assessed as inhibition of bacterial growth incubated for 24 hrs by microplate reader analysis
Enterococcus faecalis [27] = assay: Antibacterial activity against Enterococcus faecalis assessed as inhibition of bacterial growth measured after 24 hrs
[28] = system: Mycobacterium tuberculosis; assay: Anti-mycobacterial activity against Mycobacterium tuberculosis H37Rv ATCC […] assessed as bacterial growth inhibition by alamar blue assay
Staphylococcus aureus [29] = assay: Antibacterial activity against methicillin-resistant Staphylococcus aureus ATCC 33591 assessed as bacterial growth inhibition by CLSI based broth microdilution method
Staphylococcus aureus [30] = assay: Antibacterial activity against Staphylococcus aureus assessed as bacterial growth inhibition incubated for 24 hrs
[31] = system: Mycobacterium tuberculosis; assay: Anti-mycobacterial activity against Mycobacterium tuberculosis H37Rv ATCC 27294 assessed as bacterial growth inhibition incubated for 7 days by resazurin dye based assay; conditions: H37Rv ATCC 27294, 168 h, time 7 day
[32] = system: Plasmodium vinckei petteri; assay: Antimalarial activity against Plasmodium vinckei petteri 279BY infected in Swiss mouse assessed as reduction in parasitemia administered orally once daily for 4 consecutive days and measured on day 5; conditions: 120 h, route po, time 5 day
[33] = system: Plasmodium vinckei petteri; assay: Antimalarial activity against Plasmodium vinckei petteri 279BY infected in Swiss mouse assessed as reduction in parasitemia administered intraperitoneally once daily for 4 consecutive days and measured on day 5; conditions: 120 h, route ip, time 5 day
Escherichia coli [34] = assay: Antibacterial activity against Escherichia coli assessed as bacterial growth inhibition incubated for 24 hrs
[35] = system: Mycobacterium tuberculosis; assay: Antibacterial activity against Mycobacterium tuberculosis H37Rv assessed as bacterial growth inhibition by vertical diffusion method

CCCCCCc1ccc(-c2c[nH]c(N)n2)cc1
MIC [1]: 0.039 µg/mL | MIC [2]: 0.039 µg/mL

Cl.N#Cc1ccc(/C=N/NC(=N)N)cc1
fold change (FC) (Staphylococcus aureus [3]): <=32 | fold change (FC) (Staphylococcus aureus [4]): <=16

Cl.N=C(N)N/N=C/c1ccnc2ccccc12
fold change (FC) (Staphylococcus aureus [3]): <=32 | MIC (Staphylococcus aureus [5]): 1 µg/mL | fold change (FC) (Staphylococcus aureus [4]): <=16 | MIC (Staphylococcus aureus [6]): 8 µg/mL

CCCCCc1ccc(C(=O)Nc2ccc3c(c2)nc(N)n3CCCc2ccccc2)cc1
MIC [7]: 1 µg/mL

Cl.NC(N)=N/N=C/c1ccc(Cl)c(Cl)c1
fold change (FC) (Staphylococcus aureus [3]): <=32 | fold change (FC) (Staphylococcus aureus [4]): <=16

N=C(N)NCCCCCCCCN(CCCCCCCCNC(=N)NCC1CC1)C(=O)N(CCCCCCCCNC(=N)N)CCCCCCCCNC(=N)NCC1CC1
MIC (Staphylococcus aureus [8]): 0.5 µg/mL (≈ 0.591 µM) | MIC (Enterococcus faecalis [9]): 0.5 µg/mL (≈ 0.591 µM) | MIC (Acinetobacter baumannii): 0.5 µg/mL (≈ 0.591 µM) | MIC [10]: 0.5 µg/mL (≈ 0.591 µM) | MIC (Escherichia coli [11]): 0.5 µg/mL (≈ 0.591 µM) | MIC (Bacillus subtilis [12]): 0.5 µg/mL (≈ 0.591 µM) | MIC (Klebsiella pneumoniae): 0.5 µg/mL (≈ 0.591 µM) | MIC (Pseudomonas aeruginosa [13]): 0.5 µg/mL (≈ 0.591 µM)

N=C(N)N/N=C/c1ccc(C#Cc2ccc(Cl)cc2)cc1
MIC (Bacillus subtilis [14]): 0.25 µg/mL (≈ 0.842 µM) | MIC (Enterococcus faecalis [15]): 0.25 µg/mL (≈ 0.842 µM) | MIC (Staphylococcus aureus [16]): 0.25 µg/mL (≈ 0.842 µM) | MIC (Pseudomonas aeruginosa [17]): 0.25 µg/mL (≈ 0.842 µM) | MIC (Staphylococcus aureus [18]): 0.25 µg/mL (≈ 0.842 µM) | MIC (Staphylococcus aureus [19]): 0.25 µg/mL (≈ 0.842 µM) | MIC (Streptococcus mutans): 0.25 µg/mL (≈ 0.842 µM) | MIC (Staphylococcus aureus [20]): 0.25 µg/mL (≈ 0.842 µM) | MIC (Bacillus subtilis [21]): 0.25 µg/mL (≈ 0.842 µM) | MIC (Escherichia coli [22]): 0.25 µg/mL (≈ 0.842 µM) | MIC (Pseudomonas aeruginosa [23]): 0.25 µg/mL (≈ 0.842 µM) | MIC (Escherichia coli [24]): 0.25 µg/mL (≈ 0.842 µM) | MIC (Staphylococcus aureus [25]): 0.25 µg/mL (≈ 0.842 µM) | MIC (Pseudomonas aeruginosa [26]): 0.25 µg/mL (≈ 0.842 µM) | MIC (Enterococcus faecalis [27]): 0.25 µg/mL (≈ 0.842 µM)

Cc1ccc(-n2nc(C)c3c(-c4c(C)nn(-c5ccccc5)c4Cl)nc(N)nc32)cc1
MIC [28]: 1.2 µg/mL (≈ 2.79 µM)

N=C(N)NC[C@H]1OC(O[C@H]2C(NC(=O)[C@H](O)CCN)C[C@H](N)[C@@H](O[C@H]3O[C@H](CN)[C@@H](O)[C@H](O)[C@H]3O)[C@@H]2O)[C@H](O)[C@@H](N)[C@@H]1O (stereo not given in full)
MIC (Staphylococcus aureus [29]): 3.12 µg/mL (≈ 4.99 µM)

Cl.N=C(N)NCCCNC(=O)C(=O)c1cc(Cl)ccc1NC(=O)c1ccc2ccccc2c1
MIC (Staphylococcus aureus [30]): 8 µg/mL

N=C(N)NCCNC(=O)c1cc2c([nH]c3ccccc32)c(-c2ccc(O)cc2)n1
MIC [31]: 27.8 µg/mL (≈ 71.6 µM)

Cn1oc(=O)n(CCCCCCCCCCCCn2c(=O)on(C)c2=O)c1=N
ED50 [32]: 82 mg/kg | ED50 [33]: 4 mg/kg

Cl.N=C(N)NCCCNC(=O)C(=O)c1cc(Br)ccc1NC(=O)c1ccc2ccccc2c1
MIC (Staphylococcus aureus [30]): 6 µg/mL

COC(=O)C(CCCCNC(=N)N)NC(=O)C(=O)c1ccccc1NC(=O)c1ccc2ccccc2c1.Cl (stereo not given)
MIC (Escherichia coli [34]): 17 µg/mL

Cc1nn(-c2ccccc2)c(Cl)c1-c1nc(N)nc2c1c(C)nn2-c1ccc(S(=O)(=O)O)cc1Cl
MIC [28]: 1.2 µg/mL (≈ 2.26 µM)

Cc1nn(-c2ccccc2)c(Cl)c1-c1nc(N)nc2c1c(C)nn2-c1cccc(Cl)c1
MIC [28]: 1.2 µg/mL (≈ 2.66 µM)

N=C(N)Nc1nnc2nccn2n1
MIC [35]: 1.5 µg/mL (≈ 8.42 µM)
